In EP0533240A2, “Substituted amine derivatives of piperazinylcamphorsulfonyl oxytocin antagonists” (MERCK & CO. INC., priority 1991, dated 1993):
pIC50: −log10 of the molar value.

Target: T1, uterine OT receptors (Rattus norvegicus, UniProt P70536)
T1 construct: from tissue; host or cells: uterus of DES-treated rats, crude membrane preparation
T1 sequence (P70536 1-388): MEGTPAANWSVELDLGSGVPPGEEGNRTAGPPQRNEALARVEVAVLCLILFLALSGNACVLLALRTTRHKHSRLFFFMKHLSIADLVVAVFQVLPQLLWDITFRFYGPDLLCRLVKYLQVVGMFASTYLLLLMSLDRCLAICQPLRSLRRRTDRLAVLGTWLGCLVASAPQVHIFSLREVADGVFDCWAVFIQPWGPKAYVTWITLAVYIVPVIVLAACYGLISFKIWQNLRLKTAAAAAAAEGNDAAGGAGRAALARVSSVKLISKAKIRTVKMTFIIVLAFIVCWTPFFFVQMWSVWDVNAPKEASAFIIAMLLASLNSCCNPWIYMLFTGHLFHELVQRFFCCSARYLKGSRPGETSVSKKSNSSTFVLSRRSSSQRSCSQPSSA
Test: [3H]Oxytocin radioligand binding assay, crude uterine membrane preparation
Set-up: species or system rats
Conditions: for inhibition at 1 µM: at 1,000 nM compound; for pIC50: competition with 1 nM [3H]OT, 60 minutes, 22 °C, membranes of uteri from DES-treated rats; for inhibition at 10 µM: at 10,000 nM compound

[1] = 1 nM [3H]OT, rat uterine membranes
[2] = at 100 nM compound, 1 nM [3H]OT, rat uterine membranes

Procedure: Oxytocin (OT)([tyrosyl, 3,5-[^3H]OT; 30-60 Ci/mmol; New England Nuclear. Boston, MA) to uterine OT receptors was based on an assay*using a crude membrane preparation of uteri taken from diethylstilbestrol dipropionate (DES)-treated (0.3 mg/kg, ip; 18-24) rats. Competetion studies were conducted at equilibrium (60 minutes; 22 °C) using 1 nM[^3H]OT in the following assay buffer: 50 mM Tris-HCI, 5 mM MgCl2, and 0.1% BSA, pH 7.4. Nonspecific binding (10% of the total binding) was determined using 1µM unlabeled OT and the binding reaction was terminated by filtration through glass fiber filters using a cell harvester (model 7019, Skatron, Inc., Sterling, VA).

| SMILES | pIC50 | further results |
| --- | --- | --- |
| Cc1ccccc1N1CCN(S(=O)(=O)CC23CCC(CC2O)C3(C)C)C(C)C1 (stereo not shown) [Example 32] |  | inhibition at 1 µM [1]: 37% |
| COC(=O)C1CC(=O)N(CC(C)C2(O)CC3CCC2(CS(=O)(=O)N2CCN(c4ccccc4C)CC2)C3(C)C)C1 (stereo not shown) [Example 26] | 7.46 |  |
| Cc1ccccc1N1CCN(S(=O)(=O)CC23CCC(CC2(O)CNCC(C)C)C3(C)C)CC1 (stereo not drawn) [Example 19, 1-((7,7-DIMETHYL-2-EXO-HYDROXY-2-ENDO-ISOBUTYLAMINOMETHYL-BICYCLO(2.2.1 )HEPTAN-1-YL)-METHANESULFONYL)-4-(2-METHYLPHENYL)PIPERAZINE] |  | inhibition at 1 µM [1]: 31% |
| Cc1ccccc1N1CCN(S(=O)(=O)CC23CCC(CC2(O)C(C)CNC(=O)C2CCCN2CCCC(=O)O)C3(C)C)CC1 [Example 6, 1-((7,7-DIMETHYL-2-EXO-HYDROXY-2-ENDO-2-(1-(L-N-(3-CARBOXYPROPYL)PROLYL)AMINO)PROPYL-BICYCLO(2.2.1) HEPTAN-1 -YL)METHANESULFONYL)-4-(2-METHYLPHENYL) PIPERAZINE] | 8.00 |  |
| Cc1ccccc1N1CCN(S(=O)(=O)CC23CCC(CC24CO4)C3(C)C)CC1 (stereo not shown) [Example 18] |  | inhibition at 1 µM [1]: 75% |
| COC(=O)CCN1CCCC1C(=O)NCC(C)C1(O)CC2CCC1(CS(=O)(=O)N1CCN(c3ccccc3C)CC1)C2(C)C (stereo not shown) [Example 45] | 7.92 |  |
| Cc1ccccc1N1CCN(S(=O)(=O)CC23CCC(CC2=CCN=[N+]=[N-])C3(C)C)CC1 (stereo not shown) [Example 15, 1-((7,7-dimethyl-2-(2-azido)ethylidine-bicyclo(2.2.1)heptan-1-yl)methanesulfonyl)-4-(2-methylphenyl)-piperazine] |  | inhibition at 1 µM [1]: 44% |
| Cc1ccccc1N1CCN(S(=O)(=O)CC23CCC(CC2(O)C(C)CNC(=O)C2CCCNC2)C3(C)C)CC1 (stereo not drawn) [Example 47, 1-((7,7-DIMETHYL-2-EXO-HYDROXY-2-ENDO-2-(1-(3-PIPERIDINYLCARBONYL)AMINO)PROPYL-BICYCLO-(2.2.1)HEPTAN-1-YL) METHANESULFONYL)-4-(2-METHYLPHENYL)PIPERAZINE] | 7.82 |  |
| COC(=O)CCNCC(C)C1(O)CC2CCC1(CS(=O)(=O)N1CCN(c3ccccc3C)CC1)C2(C)C (stereo not shown) [Example 10] |  | inhibition at 0.1 µM [2]: 48% |
| Cc1ccccc1N1CCN(S(=O)(=O)CC23CCC(CC2(O)C(C)CNC(=O)C2CCN(CC(=O)O)CC2)C3(C)C)CC1 (stereo not drawn) [Example 58, 1-((7,7-DIMETHYL-2-EXO-HYDROXY-2-ENDO-2-(1-(4-(1-CARBOXYMETHYL)PIPERIDINYLCARBONYL)-AMINO)PROPYL-BICYCLO (2.2.1)HEPTAN-1-YL)METHANESULFONYL)-4-(2-METHYLPHENYL) PIPERAZINE] | 7.25 |  |
| Cc1ccccc1N1CCN(S(=O)(=O)CC23CCC(CC2=O)C3(C)C)CC1 (stereo not shown) [Example 1, 1-((7,7-DIMETHYL-2-OXO-BICYCLO(2.2.1)HEPTAN-1-YL) METHANESULFONYL)-4-(2-METHYLPHENYL)-PIPERAZINE] | 6.00 |  |
| CCOC(=O)CN1CCCC(C(=O)NC(C)CC2(O)CC3CCC2(CS(=O)(=O)N2CCN(c4ccccc4C)CC2)C3(C)C)C1 (stereo not shown) [Example 57] |  | inhibition at 100 nM [2]: 66% inhibition at 100 nM |
| Cc1ccccc1N1CCN(S(=O)(=O)CC23CCC(CC2N(C)C(=O)OCc2ccccc2)C3(C)C)CC1 (stereo not shown) [Example 40] |  | inhibition at 1 µM [1]: 35% |
| COC(=O)CCN1CCC(C(=O)NCC(C)C2(O)CC3CCC2(CS(=O)(=O)N2CCN(c4ccccc4C)CC2)C3(C)C)CC1 (stereo not shown) [Example 55] | 7.52 |  |
| CCOC(=O)CCCN1CCCC1C(=O)NCC(C)C1(O)CC2CCC1(CS(=O)(=O)N1CCN(c3ccccc3C)CC1)C2(C)C [Example 5, 1-((7,7-DIMETHYL-2-EXO-HYDROXY-2-ENDO-2-(1-(L-N-(ETHOXYCARBONYLPROPYL)PROLYL)AMINO)-PROPYL-BICYCLO-(2.2.1)HEPTAN-1-YL)METHANESULFONYL)-4-(2-METHYLPHENYL) PIPERAZINE] | 7.00 |  |
| Cc1ccccc1N1CCN(S(=O)(=O)CC23CCC(CC2(O)C(C)CNC(=O)C2CCCN2)C3(C)C)CC1 (stereo not shown) [Example 4] | 7.47 |  |
| Cc1ccccc1N1CCN(S(=O)(=O)CC23CCC(CC2NC(=O)OCc2ccccc2)C3(C)C)CC1 (stereo not shown) [Example 39] |  | inhibition at 1 µM [1]: 54% |
| Cc1ccccc1N1CCN(S(=O)(=O)CC23CCC(CC2(O)C(C)CNC(=O)C2CCCN2CCC(=O)O)C3(C)C)CC1 (stereo not shown) [Example 46] | 7.70 |  |
| C=CC1(O)CC2CCC1(CS(=O)(=O)N1CCN(c3ccccc3C)CC1)C2(C)C (stereo not drawn) [Example 12, 1-((7,7-dimethyl-2-exo-hydroxy-2-endo-ethenyl-bicyclo(2.2.1)heptan-1-yl)methanesulfonyl)-4-(2-methylphenyl)piperazine] |  | inhibition at 0.1 µM [2]: 23% |

| SMILES | pIC50 | further results |
| --- | --- | --- |
| Cc1ccccc1N1CCN(S(=O)(=O)CC23CCC(CC2(O)C(C)CNC(=O)Cc2c[nH]cn2)C3(C)C)CC1 (stereo not shown) [Example 7] | 8.10 |  |
| Cc1ccccc1N1CCN(S(=O)(=O)CC23CCC(CC2=CCNCC(C)C)C3(C)C)CC1 (stereo not shown) [Example 14, 1-((7,7-dimethyl-2-(2-isobutylamino)ethylidine-bicyclo (2.2.1)heptan-1-yl)methanesulfonyl)-4-(2-methylphenyl) piperazine] | 5.96 |  |
| Cc1ccccc1N1CCN(S(=O)(=O)CC23CCC(C=C2C(=O)NCCc2c[nH]cn2)C3(C)C)CC1 (stereo not shown) [Example 22, 1-((7,7-DIMETHYL-2-(4-IMIDAZOLYL)ETHYLAMINOCARBONYL-BICYCLO(2.2.1 )HEPT-2-EN-1-YL)-METHANESULFONYL)-4-(2-METHYLPHENYL)PIPERAZINE] |  | inhibition at 1 µM [1]: 78% |
| Cc1ccccc1N1CCN(S(=O)(=O)CC23CCC(CC2(O)C(C)CNC(=O)C2CCNCC2)C3(C)C)CC1 (stereo not shown) [Example 54] | 7.85 |  |
| Cc1ccccc1N1CCN(S(=O)(=O)CC23CCC(CC2=O)C3(C)C)C(C)C1=O (stereo not shown) [Example 31] |  | inhibition at 10 µM [1]: 5% |
| Cc1ccccc1N1CCN(S(=O)(=O)CC23CCC(CC2=CCN)C3(C)C)CC1 (stereo not shown) [Example 16, 1-((7,7-dimethyl-2-(2-amino)ethylidine-bicyclo(2.2.1)heptan-1-yl)methanesulfonyl)-4-(2-methylphenyl)-piperazine] |  | inhibition at 1 µM [1]: 64% |
| COC(=O)C1=CC2CCC1(CS(=O)(=O)N1CCN(c3ccccc3C)CC1)C2(C)C (stereo not shown) [Example 20, 1-((7,7-DIMETHYL-2-METHOXYCARBONYL-BICYCLO (2.2.1)HEPT-2-EN-1-YL)METHANESULFONYL)-4-(2-METHYLPHENYL)PIPERAZINE] |  | inhibition at 1 µM [1]: 72% |
| Cc1ccccc1N1CCN(S(=O)(=O)CC23CCC(CC2NC(=O)[C@@H](N)CCS(C)(=O)=O)C3(C)C)CC1=O (stereo partly drawn) [Example 36, 1-((7,7-DIMETHYL-2-ENDO-(2S-AMINO-4-(METHYLSULFONYL)BUTYRAMIDO)-BICYCLO(2.2.1 )HEPTAN-1-YL)METHANESULFONYL)-4-(2-METHYLPHENYL)-3-PIPERAZINONE] | 8.11 |  |
| Cc1ccccc1N1CCN(S(=O)(=O)CC23CCC(CC2(O)C(C)CNC(=O)C2CCN(CCC(=O)O)CC2)C3(C)C)CC1 (stereo not drawn) [Example 56, 1-((7,7-DIMETHYL-2-EXO-HYDROXY-2-ENDO-2-(1-(4-(1-CARBOXYETHYL)PIPERIDINYLCARBONYL)-AMINO)PROPYL-BICYCLO-(2.2.1)HEPTAN-1-YL)METHANESULFONYL)-4-(2-METHYLPHENYL) PIPERAZINE] | 7.27 |  |
| Cc1ccccc1N1CCN(S(=O)(=O)CC23CCC(CC2(O)C(C)C#N)C3(C)C)CC1 (single isomer, unassigned) [Example 2, 1-((7,7-DIMETHYL-2-EXO-HYDROXY-2-ENDO-(1-CYANO)ETHYL-BICYCLO(2.2.1)HEPTAN-1-YL)-METHANESULFONYL)-4-(2-METHYL PHENYL)PIPERAZINE] | 6.82 |  |
| Cc1ccccc1N1CCN(S(=O)(=O)CC23CCC(CC2NC(=O)C(C)c2c[nH]cn2)C3(C)C)CC1 (stereo not drawn) [Example 44, 1-((7,7-DIMETHYL-2-ENDO-(2-(4-IMIDAZOLYL)PROPANOYL)AMINO-BICYCLO(2.2.1 )HEPTAN-1-YL)-METHANESULFONYL)-4-(2-METHYLPHENYL)-3-PIPERAZINE] | 6.74 |  |
| Cc1ccccc1N1CCN(S(=O)(=O)CC23CCC(CC2(O)C(C)CNC(=O)C2CCCN(CC(=O)O)C2)C3(C)C)CC1 (stereo not shown) [Example 51] | 7.42 |  |
| COC(=O)CCN1CCCC(C(=O)NCC(C)C2(O)CC3CCC2(CS(=O)(=O)N2CCN(c4ccccc4C)CC2)C3(C)C)C1 (stereo not shown) [Example 48] | 7.52 |  |
| Cc1ccccc1N1CCN(S(=O)(=O)CC23CCC(CC2=O)C3(C)C)CC1=O (stereo not shown) [Example 30] |  | inhibition at 10 µM [1]: 16% |
| Cc1ccccc1N1CCN(S(=O)(=O)CC23CCC(CC2(O)C(C)CNC(=O)C2CN4CCC2CC4)C3(C)C)CC1 (stereo not shown) [Example 8] | 7.74 |  |
| Cc1ccccc1N1CCN(S(=O)(=O)CC23CCC(C=C2C(=O)O)C3(C)C)CC1 (stereo not shown) [Example 21, 1-((7,7-DIMETHYL-2-CARBOXY-BICYCLO(2.2.1) HEPT-2-EN-1 -YL)METHANESULFONYL)-4-(2-METHYLPHENYL)PIPERAZINE] |  | inhibition at 1 µM [1]: 38% |
| Cc1ccccc1N1CCN(S(=O)(=O)CC23CCC(CC2(O)C(C)CN)C3(C)C)CC1 (single isomer, unassigned) [Example 3, 1-((7,7-DIMETHYL-2-EXO-HYDROXY-2-ENDO-2-(1-AMINO)PROPYL-BICYCLO(2.2.1 )HEPTAN-1-YL)-METHANESULFONYL)-4-(2-METHYLPHENYL)PIPERAZINE] | 6.74 |  |
| Cc1ccccc1N1CCN(S(=O)(=O)CC23CCC(CC2(O)C(C)CNC(=O)C2CCCN(CCC(=O)O)C2)C3(C)C)CC1 (stereo not drawn) [Example 49, 1-((7,7-DIMETHYL-2-EXO-HYDROXY-2-ENDO-2-(1-(3-(1-CARBOXYETHYL)PIPERIDINYLCARBONYL)-AMINO)PROPYL-BICYCLO-(2.2.1)HEPTAN-1-YL)METHANESULFONYL)-4-(2-METHYLPHENYL) PIPERAZINE] | 7.60 |  |
